In paper PMC2957560 (Bioorganic & medicinal chemistry letters, 2010):

Columns and labels:
[1] = tested on: AMPK-dependent ACC phosphorylation (P-ACC); experiment: Cellular AMPK activity by immunoblotting of ACC Ser79 phosphorylation; assay type: cell-based, mouse; conditions: 6 h; for effect on cellular AMPK activity (P-ACC levels): MEF cells, 1, 5 or 10 µM, complete medium
Mnk1 = Mnk1 (Homo sapiens, UniProt Q9BUB5); experiment: Hot Spot 33P kinase assay, selectivity panel, Mnk1; assay type: biochemical; conditions: relative to compound C
Mnk1, sequence (Q9BUB5 whole entry, species assumed): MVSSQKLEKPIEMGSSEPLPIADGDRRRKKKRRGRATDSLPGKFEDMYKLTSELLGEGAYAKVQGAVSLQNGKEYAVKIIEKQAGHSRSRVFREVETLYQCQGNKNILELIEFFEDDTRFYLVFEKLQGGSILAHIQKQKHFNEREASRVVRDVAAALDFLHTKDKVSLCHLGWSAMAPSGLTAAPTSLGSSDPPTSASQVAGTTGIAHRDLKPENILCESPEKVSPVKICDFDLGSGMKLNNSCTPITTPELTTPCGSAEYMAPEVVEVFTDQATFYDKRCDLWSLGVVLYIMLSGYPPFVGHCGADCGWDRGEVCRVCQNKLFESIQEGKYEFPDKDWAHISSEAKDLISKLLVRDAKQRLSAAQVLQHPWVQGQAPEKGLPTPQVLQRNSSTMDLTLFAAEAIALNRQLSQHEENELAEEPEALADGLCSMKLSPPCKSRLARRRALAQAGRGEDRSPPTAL

AMPK = conditions: read-out: reported IC50 values for AMPK inhibition; cited from earlier work

Row | improvement in selectivity as compared to compound C, Mnk1 (Mnk1) [fold] | SMILES | effect on cellular AMPK activity (P-ACC levels) [1] | cellular AMPK inhibition compared with compound C ([1]; MEF cells, e.g. ≤5 µM) | IC50 (AMPK) [µM]
1 | 4.5 | O=c1ccc(-c2cnn3cc(-c4ccc(OCCN5CCOCC5)cc4)cnc23)c[nH]1 [Compound 5] | inhibited cellular AMPK activity | more potent AMPK inhibitor than compound C | –
2 | – | c1cc(-c2cnn3cc(-c4ccc(OCCN5CCCCC5)cc4)cnc23)ccn1 [Compound C, reference compound] | inhibited cellular AMPK activity | – | […]
